The values that follow are results of earlier work, collected in patent publication US20090110646A1, “Product for Treating the Skin and Mucous Membranes, and Relative Method of Preparation” (priority 2005, published 2009).

With `O=C(O)C(Cl)(Cl)Cl` [TCA, trichloracetic acid], the “depth of dermal necrosis” value (solution of TCA at about 30-40% w/w) was 0.3-0.5 mm. For the same compound, for the setting “solution of TCA in a concentration of less than 25% w/w”, the effect on skin result was “exfoliation of the epidermis”. The “time of eschar (crust) until skin renewal” value (very concentrated TCA) was 7 to 10 days.
